{"source": "patent US20180251431A1", "about": "(VERTEX PHARMACEUTICALS INCORPORATED, priority 2016, published 2018)", "data": [{"system": "HEK293 cells", "assay": "HEK293 VLCFA-LPC IC50 determination (13C-labeled C26:0 LPC by UHPLC/MS)", "type": "cell-based, human", "conditions": "Homo sapiens, HEK293, 48 h, average of one or more replicates; 13C-labeled C26:0 LPC, 48 hours; read-out: Average HEK293 IC50", "method": "(§1) HEK293 cells were treated with compounds, such as those listed in Tables A-E of Example 1, using the representative manual protocols described below. The protocols below were also adapted to a semi-automated protocol using standard methods in the art.\n(§2) Cell Culture Growth Conditions:\n(§3) HEK293 cells were maintained in FreeStyle F17 media (Gibco # A13835) supplemented with PenStrep (1%, Gibco #15070-063), Glutamax (2%, Gibco #35050-061), and Pluronic (0.1%, Gibco #24040-032) (“supplemented media”). Suspension cultures were grown in disposable Erlenmeyer flasks at about 120 rpm, 37° C., 5% CO2, and 80% humidity. Cell densities were kept between about 0.5 and 3 million cells per mL, in about 50-200 mL per flask.\n(§4) Treatment of Cells with Compounds Provided Herein:\n(§5) The cells were treated with compounds using either a total of 900 uL cell media volume (high-volume assay) or a total of 200 uL cell media volume (low-volume assay). In the high volume assay, 450 μL of supplemented media plus 13C-acetate (1.0 mg/mL, Sigma Aldrich #282014) were added to 0.5 μL of a compound (such as those in Tables A-E) in DMSO in a polypropylene v-bottom plate (Costar #3363) in 1 of 3 dilution schemes. The contents of each well were mixed and transferred to a sterile polypropylene deep-well v-bottom plate (Costar #3960). 450 μL of cultured HEK293 cells in supplemented media at a density of 1.0 million cells/mL was added to each well. In the low volume assay, 100 μL of supplemented media plus 13C-acetate (1.0 mg/mL, Sigma Aldrich #282014) were added to either 0.1 μL or 1.0 uL of a compound (such as those in Tables A-E) in DMSO in a polypropylene v-bottom plate (Costar #3363) in 1 of 3 dilution schemes. 100 μL of cultured HEK293 cells in supplemented media at a density of 1.0 million cells/mL was added to each well. The high volume and low volume plates were sealed with either AirPore Tape Sheets (Qiagen #19571) or Duetz plate covers to control evaporation and placed into a shaking incubator at 225 rpm, 37° C., 5% CO2, and 80% humidity for 48 hours. For both the high and low volume assays the 3 dilution schemes used were as follows:\n(§6) Following incubation, treated cells were harvested by centrifugation at 1690×g for 10 minutes. In the high volume assay 200 uL treated cells were transferred to a polypropylene v-bottom plate (Costar #3363) prior to centrifugation. In the low volume assay the incubation plate was centrifuged directly, without a transfer step. The supernatant was then discarded and the analytes were extracted using 1 of 2 different extraction schemes. In the first scheme, the cell pellet was visibly broken up by mixing the cell pellet up and down in 100 μL of hexane/isopropanol (60:40) 20 times. The resulting mixture was transferred to a 0.45 μm Durapore membrane (Millipore #MSH VN4510) atop a polypropylene v-bottom plate (Costar #3363) and filtered by centrifugation at 1690×g for 5 minutes. 120 μL of n-butanol containing 10 nM C13:0 lysophosphatidylcholine was added to the filtrate as an injection control standard, then the entire volume was transferred to a new Durapore membrane/v-bottom plate. In the second scheme, the cell pellet was visibly broken up by mixing the cell pellet up and down in 180 μL of methanol containing 10 nM C13:0 lysophosphatidylcholine 20 times. The resulting mixture was transferred to a 0.45 μm Durapore membrane (Millipore #MSH VN4510) atop a polypropylene v-bottom plate and filtered by centrifugation at 1690×g for 5 minutes. In both schemes, the plates were then sealed with pierceable capmats (Micronic MP53017) and stored at −20 OC until analyzed.\n(§7) UHPLC/Mass Spectrometry Readout:\n(§8) The filtered organic extraction was analyzed with a 1290 Agilent Infinity Series UHPLC coupled to an ABI Sciex QTrap 6500 mass spectrometer. […]", "units": {"IC50": "nM"}, "values": [{"smiles": "COc1cncc(OC)c1-n1ccc(NC(=O)C2(c3ccccc3F)CC2)n1", "note": "[Compound 347, N-[1-(3,5-dimethoxy-4-pyridyl)pyrazol-3-yl]-1-(2-fluorophenyl)cyclopropanecarboxamide]", "IC50": "> 5000"}, {"smiles": "COc1cc(-n2ccc(NC(=O)C3(c4ccccc4F)CC3)n2)cc(OC)c1OC", "note": "[Compound 321, 1-(2-fluorophenyl)-N-[1-(3,4,5-trimethoxyphenyl)pyrazol-3-yl]cyclopropanecarboxamide]", "IC50": "> 5000"}, {"smiles": "N#Cc1ncccc1-n1ccc(NC(=O)C2(c3ccccc3F)CC2)n1", "note": "[Compound 320, N-[1-(2-cyano-3-pyridyl)pyrazol-3-yl]-1-(2-fluorophenyl)cyclopropanecarboxamide]", "IC50": "> 5000"}, {"smiles": "O=C(Nc1ccn(-c2ccncc2C(F)(F)F)n1)C1(c2ccccc2F)CC1", "note": "[Compound 328, 1-(2-fluorophenyl)-N-[1-[3-(trifluoromethyl)-4-pyridyl]pyrazol-3-yl]cyclopropanecarboxamide]", "IC50": "> 5000"}, {"smiles": "O=C(Nc1ccn(-c2ccccc2)n1)C1(c2ccccc2)CC1CO", "note": "(centres unmarked) [Compound 444, 2-(hydroxymethyl)-1-phenyl-N-(1-phenyl-1H-pyrazol-3-yl)cyclopropane-1-carboxamide]", "IC50": 260}, {"smiles": "COc1ncc(-n2ccc(NC(=O)C3(c4ccccc4F)CC3)n2)cc1F", "note": "[Compound 348, N-[1-(5-fluoro-6-methoxy-3-pyridyl)pyrazol-3-yl]-1-(2-fluorophenyl)cyclopropanecarboxamide]", "IC50": 33}, {"smiles": "N#Cc1cncc(-n2ccc(NC(=O)C3(c4ccccc4F)CC3)n2)c1", "note": "[Compound 318, N-[1-(5-cyano-3-pyridyl)pyrazol-3-yl]-1-(2-fluorophenyl)cyclopropanecarboxamide]", "IC50": "> 5000"}, {"smiles": "Cc1cncnc1-n1ccc(NC(=O)C2(c3ccccc3F)CC2)n1", "note": "[Compound 360, 1-(2-fluorophenyl)-N-[1-(5-methylpyrimidin-4-yl)pyrazol-3-yl]cyclopropanecarboxamide]", "IC50": 69}]}, {"system": "HEK293 cells", "assay": "HEK293 VLCFA-LPC IC50 determination (13C-labeled C26:0 LPC by UHPLC/MS)", "type": "cell-based, human", "conditions": "Homo sapiens, HEK293, HEK293 cells; average of one or more replicates; read-out: Average HEK293 IC50", "method": "as §1, §2, §3, §4, §5, §6, §7, §8", "units": {"IC50": "nM"}, "values": [{"smiles": "O=C(Nc1ccn(-c2ccccc2)n1)C1(c2cccc(Cl)c2)CC1", "note": "[Compound 19, 1-(3-chlorophenyl)-N-(1-phenylpyrazol-3-yl)cyclopropanecarboxamide]", "IC50": 250}, {"smiles": "Cc1ccn(CC(=O)Nc2ccn(-c3ccccc3)n2)n1", "note": "[Compound 291, 2-(3-methylpyrazol-1-yl)-N-(1-phenylpyrazol-3-yl)acetamide]", "IC50": "> 5000"}, {"smiles": "CCC(C)(C(=O)Nc1ccn(-c2ccnc(F)c2)n1)c1ccccc1", "note": "(centres unmarked) [Compound 294, N-[1-(2-fluoro-4-pyridyl)pyrazol-3-yl]-2-methyl-2-phenyl-butanamide]", "IC50": 390}, {"smiles": "O=C(Cc1ccccc1)Nc1ccn(-c2ccc(F)c(Cl)c2)n1", "note": "[Compound 197, N-[1-(3-chloro-4-fluoro-phenyl)pyrazol-3-yl]-2-phenyl-acetamide]", "IC50": "> 5000"}, {"smiles": "O=C(Cc1ccc(O)c(F)c1)Nc1ccn(-c2ccccc2)n1", "note": "[Compound 56, 2-(3-fluoro-4-hydroxy-phenyl)-N-(1-phenylpyrazol-3-yl)acetamide]", "IC50": "> 5000"}, {"smiles": "COc1ncc(-n2ccc(NC(=O)C3(c4ncccc4F)CC3(C)C)n2)cc1F", "note": "(centres unmarked) [Compound 517, N-[1-(5-fluoro-6-methoxy-3-pyridyl)pyrazol-3-yl]-1-(3-fluoro-2-pyridyl)-2,2-dimethyl-cyclopropanecarboxamide]", "IC50": 1100}, {"smiles": "O=C(Nc1ccn(-c2ccc(F)c(F)c2)n1)C1(c2cnccn2)CC1", "note": "[Compound 492, N-[1-(3,4-difluorophenyl)pyrazol-3-yl]-1-pyrazin-2-yl-cyclopropanecarboxamide]", "IC50": "> 5000"}, {"smiles": "O=C(Nc1ccn(-c2ccccc2)n1)C1(c2ccccc2)CC(F)(F)C1", "note": "[Compound 177, 3,3-difluoro-1-phenyl-N-(1-phenylpyrazol-3-yl)cyclobutanecarboxamide]", "IC50": 790}, {"smiles": "CC(C)c1ccc(CC(=O)Nc2ccn(-c3ccccc3)n2)cc1", "note": "[Compound 10, 2-(4-isopropylphenyl)-N-(1-phenylpyrazol-3-yl)acetamide]", "IC50": 4400}, {"smiles": "O=C(Cc1ccccc1)Nc1ccn(-c2ccc(Cl)nc2)n1", "note": "[Compound 103, N-[1-(6-chloro-3-pyridyl)pyrazol-3-yl]-2-phenyl-acetamide]", "IC50": 580}, {"smiles": "O=C(Nc1ccn(-c2cncnc2)n1)C1(c2ccccc2F)CC1", "note": "[Compound 85, 1-(2-fluorophenyl)-N-(1-pyrimidin-5-ylpyrazol-3-yl)cyclopropanecarboxamide]", "IC50": 95}, {"smiles": "O=C(Nc1ccn(-c2ccc(Cl)nc2)n1)C1(c2ccccc2F)CC1", "note": "[Compound 107, N-[1-(6-chloro-3-pyridyl)pyrazol-3-yl]-1-(2-fluorophenyl)cyclopropanecarboxamide]", "IC50": 84}, {"smiles": "O=C(Nc1ccn(-c2ccccc2)n1)C1(c2ccccc2F)CC1", "note": "[Compound 22, 1-(2-fluorophenyl)-N-(1-phenylpyrazol-3-yl)cyclopropanecarboxamide]", "IC50": 12}, {"smiles": "O=C(Nc1ccn(-c2ccccc2)n1)C1(c2ccc(F)cc2)CC1", "note": "[Compound 13, 1-(4-fluorophenyl)-N-(1-phenylpyrazol-3-yl)cyclopropanecarboxamide]", "IC50": 82}, {"smiles": "[2H]C([2H])([2H])Oc1cc(-n2ccc(NC(=O)C3(c4ccccc4F)CC3)n2)ccn1", "note": "[Compound 439, 1-(2-fluorophenyl)-N-[1-[2-(trideuteriomethoxy)-4-pyridyl]pyrazol-3-yl]cyclopropanecarboxamide]", "IC50": 80}, {"smiles": "Cc1ccc(-n2ccc(NC(=O)Cc3ccccc3)n2)cn1", "note": "[Compound 117, N-[1-(6-methyl-3-pyridyl)pyrazol-3-yl]-2-phenyl-acetamide]", "IC50": "> 5000"}, {"smiles": "O=C(Nc1ccn(-c2ccnc(C(F)F)c2)n1)C1(c2ccccc2F)CC1", "note": "[Compound 396, N-[1-[2-(difluoromethyl)-4-pyridyl]pyrazol-3-yl]-1-(2-fluorophenyl)cyclopropanecarboxamide]", "IC50": "> 5000"}, {"smiles": "O=C(Nc1ccn(-c2ccnc(F)c2)n1)C1(c2ccccc2)CC1(Cl)Cl", "note": "(centres unmarked) [Compound 147, 2,2-dichloro-N-[1-(2-fluoro-4-pyridyl)pyrazol-3-yl]-1-phenyl-cyclopropanecarboxamide]", "IC50": 280}, {"smiles": "Cn1ncnc1-n1ccc(NC(=O)C2(c3ccccc3F)CC2)n1", "note": "[Compound 415, 1-(2-fluorophenyl)-N-[1-(2-methyl-1,2,4-triazol-3-yl)pyrazol-3-yl]cyclopropanecarboxamide]", "IC50": 90}, {"smiles": "Cc1nn(C(F)F)cc1-n1ccc(NC(=O)C2(c3ccccc3F)CC2)n1", "note": "[Compound 414, N-[1-[1-(difluoromethyl)-3-methyl-pyrazol-4-yl]pyrazol-3-yl]-1-(2-fluorophenyl)cyclopropanecarboxamide]", "IC50": "> 5000"}, {"smiles": "CC1CC1(C(=O)Nc1ccn(-c2cncc(F)c2)n1)c1ncccc1F", "note": "(centres unmarked) [Compound 503, 1-(3-fluoro-2-pyridyI)-N-[1-(5-fluoro-3-pyridyl)pyrazol-3-yl]-2-methyl-cyclopropanecarboxamide]", "IC50": 110}, {"smiles": "O=C(Nc1ccn(-c2ccnc(F)c2)n1)C1(c2cccc(F)c2)CC1", "note": "[Compound 254, 1-(3-fluorophenyl)-N-[1-(2-fluoro-4-pyridyl)pyrazol-3-yl]cyclopropanecarboxamide]", "IC50": 190}, {"smiles": "O=C(Cc1cccc(F)c1F)Nc1ccn(-c2ccccc2)n1", "note": "[Compound 60, 2-(2,3-difluorophenyl)-N-(1-phenylpyrazol-3-yl)acetamide]", "IC50": "> 2000"}, {"smiles": "COc1ccc(F)c(C2(C(=O)Nc3ccn(-c4ccnc(F)c4)n3)CC2)c1", "note": "[Compound 314, 1-(2-fluoro-5-methoxy-phenyl)-N-[1-(2-fluoro-4-pyridyl)pyrazol-3-yl]cyclopropanecarboxamide]", "IC50": 57}]}]}
